Measured values: ChEMBL document CHEMBL2163227, “Synthesis and biological characterization of a series of novel diaryl amide M₁ antagonists” (Bioorg Med Chem Lett, 2012)
pEC50, pIC50: −log10 of the molar value. The source made the active and inactive calls. No cut-off for these calls is given here.

Legend:
[1] = biological target: T1, Muscarinic acetylcholine receptor M1 (Homo sapiens) (UniProt P11229); experiment: (§1) Antagonist activity at human muscarinic M1 receptor; assay type: functional; set-up: concentration or dose not given beside the values
T1 sequence (whole entry): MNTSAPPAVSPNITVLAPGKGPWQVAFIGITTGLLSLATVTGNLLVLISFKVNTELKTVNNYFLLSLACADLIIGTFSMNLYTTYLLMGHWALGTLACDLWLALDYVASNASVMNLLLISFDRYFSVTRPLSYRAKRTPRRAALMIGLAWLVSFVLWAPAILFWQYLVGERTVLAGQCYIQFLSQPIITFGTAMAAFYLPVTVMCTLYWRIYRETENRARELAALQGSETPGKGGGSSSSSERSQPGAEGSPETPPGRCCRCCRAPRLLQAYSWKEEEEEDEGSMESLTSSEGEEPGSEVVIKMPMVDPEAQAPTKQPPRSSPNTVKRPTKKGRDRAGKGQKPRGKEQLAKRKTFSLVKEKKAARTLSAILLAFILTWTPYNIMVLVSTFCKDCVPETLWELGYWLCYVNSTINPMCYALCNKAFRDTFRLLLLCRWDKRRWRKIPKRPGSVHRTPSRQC

[2] = biological target: T2, Muscarinic acetylcholine receptor M1 (Homo sapiens, UniProt P11229); experiment: as §1; assay type: functional; conditions: for pIC50: read-out: IC50
T2 sequence (P11229 whole entry): T1 sequence (whole entry)

[3] = biological target: T1, Muscarinic acetylcholine receptor M1 (Homo sapiens); experiment: Antagonist activity at human muscarinic M1 receptor at 30 uM; assay type: functional
[4] = biological target: T3, Muscarinic acetylcholine receptor M5 (Homo sapiens, UniProt P08912); experiment: Antagonist activity at human muscarinic M5 receptor by calcium mobilization assay; assay type: functional
T3 sequence (P08912 whole entry): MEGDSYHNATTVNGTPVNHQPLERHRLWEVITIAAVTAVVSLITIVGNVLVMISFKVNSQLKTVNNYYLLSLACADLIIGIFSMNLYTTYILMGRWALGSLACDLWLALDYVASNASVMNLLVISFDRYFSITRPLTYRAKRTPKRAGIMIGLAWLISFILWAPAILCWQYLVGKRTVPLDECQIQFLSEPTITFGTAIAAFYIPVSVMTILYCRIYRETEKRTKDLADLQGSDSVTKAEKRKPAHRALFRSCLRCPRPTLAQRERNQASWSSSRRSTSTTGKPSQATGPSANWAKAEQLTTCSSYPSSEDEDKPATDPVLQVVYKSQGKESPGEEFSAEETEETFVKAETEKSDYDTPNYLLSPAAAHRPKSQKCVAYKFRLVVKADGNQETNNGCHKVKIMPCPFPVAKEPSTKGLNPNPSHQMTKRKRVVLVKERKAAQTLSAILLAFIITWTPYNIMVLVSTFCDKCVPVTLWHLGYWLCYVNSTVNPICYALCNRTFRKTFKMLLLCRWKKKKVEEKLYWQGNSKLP

[5] = biological target: T4, Muscarinic acetylcholine receptor M4 (Homo sapiens, UniProt P08173); experiment: Antagonist activity at human muscarinic M4 receptor by calcium mobilization assay; assay type: functional
T4 sequence (P08173 whole entry): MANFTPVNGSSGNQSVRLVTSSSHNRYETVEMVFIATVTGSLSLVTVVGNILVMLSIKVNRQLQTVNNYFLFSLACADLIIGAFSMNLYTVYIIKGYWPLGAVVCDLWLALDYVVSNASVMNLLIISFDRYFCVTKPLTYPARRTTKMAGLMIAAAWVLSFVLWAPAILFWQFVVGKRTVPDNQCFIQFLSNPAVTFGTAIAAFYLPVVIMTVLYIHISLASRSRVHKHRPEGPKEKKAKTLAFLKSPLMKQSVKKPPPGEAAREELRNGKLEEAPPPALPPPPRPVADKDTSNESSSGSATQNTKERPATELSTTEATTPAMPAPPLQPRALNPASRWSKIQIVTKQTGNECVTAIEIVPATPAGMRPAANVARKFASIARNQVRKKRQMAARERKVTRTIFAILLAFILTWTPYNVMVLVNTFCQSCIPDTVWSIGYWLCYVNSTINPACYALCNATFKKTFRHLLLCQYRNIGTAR

[6] = biological target: T5, Muscarinic acetylcholine receptor M2 (Homo sapiens, UniProt P08172); experiment: Antagonist activity at human muscarinic M2 receptor by calcium mobilization assay; assay type: functional
T5 sequence (P08172 whole entry): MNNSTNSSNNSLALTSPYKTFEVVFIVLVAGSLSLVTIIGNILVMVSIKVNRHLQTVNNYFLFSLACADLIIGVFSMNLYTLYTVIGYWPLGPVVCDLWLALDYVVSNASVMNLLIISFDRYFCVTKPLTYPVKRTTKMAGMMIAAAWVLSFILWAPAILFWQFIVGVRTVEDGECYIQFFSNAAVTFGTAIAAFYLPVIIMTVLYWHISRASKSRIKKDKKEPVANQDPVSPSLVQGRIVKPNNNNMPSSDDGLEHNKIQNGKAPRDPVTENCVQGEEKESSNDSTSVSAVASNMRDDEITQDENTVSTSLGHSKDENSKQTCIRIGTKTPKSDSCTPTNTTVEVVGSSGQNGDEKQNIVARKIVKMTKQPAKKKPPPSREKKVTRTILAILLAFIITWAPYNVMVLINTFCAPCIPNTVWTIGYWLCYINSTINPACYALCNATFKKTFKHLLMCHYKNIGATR

[7] = biological target: Muscarinic acetylcholine receptor M3 (Homo sapiens, UniProt P20309); experiment: Antagonist activity at human muscarinic M3 receptor by calcium mobilization assay; assay type: functional
Sequence of Muscarinic acetylcholine receptor M3 (P20309 whole entry): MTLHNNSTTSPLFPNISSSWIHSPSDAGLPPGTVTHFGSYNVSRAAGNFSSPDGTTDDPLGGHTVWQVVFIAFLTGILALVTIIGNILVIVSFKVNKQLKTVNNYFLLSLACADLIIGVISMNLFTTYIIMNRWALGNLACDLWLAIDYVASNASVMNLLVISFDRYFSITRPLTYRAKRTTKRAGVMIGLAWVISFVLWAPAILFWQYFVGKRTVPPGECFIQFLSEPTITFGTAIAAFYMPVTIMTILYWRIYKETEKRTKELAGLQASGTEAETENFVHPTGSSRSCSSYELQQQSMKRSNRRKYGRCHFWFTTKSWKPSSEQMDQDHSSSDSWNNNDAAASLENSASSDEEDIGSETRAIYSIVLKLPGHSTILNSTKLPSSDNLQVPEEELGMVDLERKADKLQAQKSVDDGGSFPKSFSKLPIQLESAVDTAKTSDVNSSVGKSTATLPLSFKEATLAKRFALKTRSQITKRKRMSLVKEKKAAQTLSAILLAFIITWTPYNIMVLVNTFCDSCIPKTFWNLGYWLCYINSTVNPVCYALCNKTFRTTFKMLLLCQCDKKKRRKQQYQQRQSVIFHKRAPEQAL

[8] = biological target: T1, Muscarinic acetylcholine receptor M1 (Homo sapiens); experiment: Antagonist activity at human muscarinic M1 receptor expressed in CHO cells assessed as inhibition of Ach-mediated response by calcium mobilization assay; assay type: functional, cell-based

Activity [1]	pIC50 [2]	Activity [3]	SMILES	further results
2.1%	5.62	–	CN1CCN(C(=O)[C@](F)(Cc2ccccc2)c2ccccc2)CC1 (mixture of isomers)	–
62.8%	< 5.00	inactive	CN1CCN(C(=O)C(Cc2ccccc2)c2ccccc2)CC1c1ccccc1 (configuration not stated)	–
2.4%	7.00	–	CC(C)N1CCCN(C(=O)C(Cc2ccccc2)c2ccccc2)CC1 (configuration not stated)	–
3.5%	5.42	–	O=C(C(Cc1ccccc1)c1ccccc1)N1CCC(N2CCCC2)CC1 (configuration not stated)	–
107%	< 5.00	–	CN1CCN(C(=O)[C@@H](Oc2ccccc2)c2ccccc2)CC1 (racemic)	–
3.4%	6.62	–	CN1CCN(C(=O)[C@H](Oc2ccccc2)c2ccccc2)CC1 (mixture of isomers)	–
3.1%	7.54	–	CN1CCN(C(=O)C(F)(Cc2ccccc2)c2ccccc2)CC1 (configuration not stated)	pEC50 [2]: 7.55
26.1%	< 5.00	inactive	O=C(C(Cc1ccccc1)c1ccccc1)N1CCNCC1 (configuration not stated)	–
24.3%	< 5.00	inactive	O=C(C(Cc1ccccc1)c1ccccc1)N1CCCNCC1 (configuration not stated)	–
3.5%	< 5.00	inactive	CN(C)CCNC(=O)C(Cc1ccccc1)c1ccccc1 (configuration not stated)	–
8.7%	< 5.00	inactive	C[N+]1(C)CCN(C(=O)C(Cc2ccccc2)c2ccccc2)CC1 (configuration not stated)	–
10.9%	< 5.00	inactive	COCCN1CCN(C(=O)C(Cc2ccccc2)c2ccccc2)CC1 (configuration not stated)	–
2.7%	7.74	–	CN1CCN(C(=O)[C@@](F)(Cc2ccccc2)c2ccccc2)CC1 (mixture of isomers)	pIC50 [4]: 7.09; pIC50 [5]: 6.85; pIC50 [6]: < 5.82; pIC50 [7]: < 5.82; inhibition [8]: Dose-dependent effect
inactive	–	–	CN1CCN(C(=O)[C@@H](Cc2ccccc2)c2ccccc2)CC1	–
28.5%	< 5.00	inactive	O=C(C(Cc1ccccc1)c1ccccc1)N1CCN(c2ccncc2)CC1 (configuration not stated)	–
1.4%	7.00	–	CC1CN(C(=O)C(Cc2ccccc2)c2ccccc2)CCN1C (configuration not stated)	–
29.6%	< 5.00	inactive	CC1CCN(C)CCN1C(=O)C(Cc1ccccc1)c1ccccc1 (configuration not stated)	–
0.5%	5.70	–	O=C(C(Cc1ccccc1)c1ccccc1)N1CCN2CCCCC2C1 (configuration not stated)	–
–	7.48	–	CN1CCN(C(=O)[C@H](Cc2ccccc2)c2ccccc2)CC1	inhibition [8]: Dose-dependent effect

Activity [1]	pIC50 [2]	Activity [3]	SMILES	further results
1.3%	6.36	–	CC(C)N1CCN(C(=O)C(Cc2ccccc2)c2ccccc2)CC1 (configuration not stated)	–
39.1%	< 5.00	–	CN1CCN(C(=O)C(C)(Cc2ccccc2)c2ccccc2)CC1 (configuration not stated)	–
6.7%	< 5.00	inactive	CN1C[C@@H]2CN(C(=O)C(Cc3ccccc3)c3ccccc3)C[C@@H]2C1 (some centres not stated)	–
–	6.74	–	CN1CCN(C(=O)/C(=C\c2ccccc2)c2ccccc2)CC1	–
inactive	–	–	CN1CCC(N2CCN(C(=O)C(Cc3ccccc3)c3ccccc3)CC2)CC1 (configuration not stated)	–
3.5%	6.06	–	CN1CCN(C(=O)C(Cc2ccncc2)c2ccccc2)CC1 (configuration not stated)	–
17.2%	< 5.00	inactive	CN1CCN(C(=O)C(Cc2ccccc2)c2ccccc2)C(c2ccccc2)C1 (configuration not stated)	–
2.2%	7.42	–	CCN1CCCN(C(=O)C(Cc2ccccc2)c2ccccc2)CC1 (configuration not stated)	–
1.5%	6.85	–	CN(C)CCOC(=O)C(Cc1ccccc1)c1ccccc1 (configuration not stated)	–
1.4%	6.59	–	CCN1CCN(C(=O)C(Cc2ccccc2)c2ccccc2)CC1C (configuration not stated)	–
2.4%	7.36	–	CN1CCN(C(=O)C(Cc2ccccc2)c2ccccc2)CC1 (racemic)	–
35.9%	< 5.00	inactive	CC(C)CN1CCN(C(=O)C(Cc2ccccc2)c2ccccc2)CC1 (configuration not stated)	–
inactive	–	–	O=C(C(Cc1ccccc1)c1ccccc1)N1CCN(CC(F)(F)F)CC1 (configuration not stated)	–
2%	7.00	–	CN1CCCN(C(=O)C(Cc2ccccc2)c2ccccc2)CC1 (configuration not stated)	–
6.43%	6.43	–	O=C(C(Cc1ccccc1)c1ccccc1)N1CC[C@H]2CCCN2CC1 (some centres not stated)	IC50 ([2]; read-out: pIC50 (converted)): 2140 nM
–	5.60	–	CN1CCN(C(=O)C2(c3ccccc3)CC2c2ccccc2)CC1 (configuration not stated)	–
37.1%	< 5.00	inactive	CN(C)CCN(C)C(=O)C(Cc1ccccc1)c1ccccc1 (configuration not stated)	–
1.1%	6.30	–	CN1CCN(C(=O)C(Cc2cccnc2)c2ccccc2)CC1 (configuration not stated)	–

SMILES	Activity [1]	pIC50 [2]	Activity [3]	further results
CCN1CCN(C(=O)C(Cc2ccccc2)c2ccccc2)CC1(C)C (configuration not stated)	1.5%	7.05	–	–
CCN1CCN(C(=O)C(Cc2ccccc2)c2ccccc2)CC1 (configuration not stated)	1.8%	6.24	–	–
